Test results from patent publication US12357598B2, “Treatment of neurodevelopmental disorders” (THE REGENTS OF THE UNIVERSITY OF CALIFORNIA, priority 2018, dated 2025).

How the values were obtained:
Format in all cases: in vivo, mouse
parvalbumin (PV) = experiment: PV immunohistochemistry in mPFC, offspring after MIA; details: adult offspring of poly(I:C)-treated mice vs saline-treated group
Procedure: (§1) Immunohistochemistry. Immunohistochemistry of PV was performed as reported previously (37,39,59,60). Mice were anesthetized with 5% isoflurane and sodium pentobarbital (50 mg/kg), and perfused transcardially with 10 mL of physiological saline, followed by 40 mL of ice-cold 4% paraformaldehyde in 0.1M phosphate buffer (pH 7.4). Brains were removed from the skulls and post fixed overnight at 4° C. in the same fixative. For the immunohistochemical analysis, 50 μm-thick serial, coronal sections of brain tissue were cut in ice-cold 0.01M phosphate buffered saline (pH 7.5) using a vibrating blade microtome (VT1000s, Leica Microsystems, Tokyo, Japan). Free-floating sections were treated with 0.3% H2O2 in 50 mM Tris-HCl saline (TBS) for 30 min and were blocked in TBS containing 0.2% Triton X-100 (TBST) and 1.5% normal serum for 1 h at room temperature. […] The sections were imaged, and the staining intensity of PV (or GADO immunoreactivity in the inflalimbic (IL) and prelimbic (PrL) regions of mPFC was analyzed using a light micro-scope equipped with a CCD camera (Olympus IX70, Tokyo, Japan) and the SCION IMAGE software package. Images of sections within mPFC region were captured using a 100× objective with a Keyence BZ-X710 microscope (Keyence Corporation, Osaka, Japan).

GAD67 = GAD67 immunohistochemistry in mPFC, offspring after MIA; details: adult offspring of poly(I:C)-treated mice vs saline-treated group
Procedure: as §1

Ephx2 mRNA = experiment: Quantitative RT-PCR of Ephx2 mRNA in brain regions of juvenile offspring after MIA; details: juvenile offspring of poly(I:C)-treated mice vs saline-treated mice
Description: Gene expression analysis by quantitative real-time PCR. At juvenile (P28) stage, mice were sacrificed, and their brains were removed for measurement of gene expression of Ephx2 mRNA. Brain regions such as PFC, striatum, CA1, CA3 and DG of the hippocampus were dissected from brain on ice using a Leica microscope S9E (Leica Microsystems, Tokyo, Japan). A quantitative RT-PCR system (Step One Plus, Thermo Fisher Scientific, Yokohama, Japan) was used to measure mRNAs. The specific mRNA transcripts were quantified by TaqManGene Expression assays (Thermo Fisher Scientific, Yokohama, Japan). Expression levels of Ephx2 (Mm01313813_m1) was measured in brain tissue. Total RNA was extracted by use of an RNeasy Mini Kit (Qiagen, Hilden, Germany). The purity of total RNA was assessed by Biophotometer plus (Eppendorf, Hamburg, Germany). The RNA samples were used in the first strand cDNA synthesis with High Capacity cDNA Reverse Transcription Kit (#4368813 Thermo Fisher Scientific, Yokohama, Japan). All samples were tested in triplicate and average values were used for quantification. The average values were normalized to Vic-labeled Actb mRNA (Cat #4352341E: pre-developed TaqMan Assay Reagents, Thermo Fisher Scientific, Yokohama, Japan).

gut microbiota = experiment: 16S rRNA analysis of fecal samples after maternal glyphosate exposure; details: juvenile offspring (P28)
Procedure: 16S rRNA analysis and measurement of short-chain fluty acids of fecal samples. On P28, we collected fresh fecal samples from each mouse at around 10:00 in order to avoid circadian effects on the microbiome. The fecal samples were put into a sterilized screw cap microtube immediately after defecation, and these samples were stored at −80° C. until use. DNA extraction from mouse feces and 16S rRNA analysis of fecal samples were performed by MyMetagenome Co, Ltd. (Tokyo, Japan), as reported previously (20,21).

sEH = experiment: Western blot of sEH in brain regions after maternal glyphosate exposure
Description: Collection of blood and brain samples and oxylipin analysis. Water or 0.095% glyphosate was given to pregnant mice from E5 to P21, as described above. The male offspring were separated from their mothers at weaning (P21). At juvenile (P28) stage, mice were deeply anesthetized with isoflurane and plasma was collected. Subsequently, brains were removed from the skulls. For Western blot analysis, brain regions such as prefrontal cortex (PFC), hippocampus, and striatum, were dissected from brain on ice. The samples were stored at −80° C. before assay. For oxylipin analysis, plasma was collected after isoflurane anesthesia at juvenile (P28) stage. Subsequently, PFC, hippocampus, and striatum were dissected from brain on ice, and the samples were stored at −80° C. before assay. […]
Western blot analysis. […] 50 μg of protein were measured using the DC protein assay kit (Bio-Rad), and incubated for 5 min at 95° C., with an equal volume of 125 mM Tris-HCl, pH6.8, 20% glycerol, 0.1% bromophenol blue, 10% β-mercaptoethanol, 4% sodium dodecyl sulfate, and subjected to sodium dodecyl sulfate polyacrylamide gel electrophoresis, using 7.5% or AnyKD mini-gels (Mini-PROTEAN® TGX™ Precast Gel; Bio-Rad, CA, USA). […] After final three washes with TBST, bands were detected using enhanced chemiluminescence (ECL) prime Western Blotting Detection system (GE Healthcare Bioscience). […]

ddY mice = experiment: Short-chain fatty acids in fecal samples after maternal glyphosate exposure; details: offspring after maternal glyphosate exposure
Procedure: Measurement of short-chain fatty acids—acetic acid, propionic acid, butyric acid, and valeric acid—in fecal samples was performed by the TechnoSuruga Laboratory, Co., Ltd. (Shizuoka, Japan).

## polyriboinosinic-polyribocytidilic acid [Poly(I:C)]
Parvalbumin (PV)
  PV-IR in the PrL of mPFC: significantly lower
GAD67
  GAD67-IR in the PrL and IL of mPFC: significantly lower
Ephx2 mRNA
  expression of sEH (or Ephx2) mRNA in the PFC: significantly higher

## O=C(O)CNCP(=O)(O)O [glyphosate]
Gut microbiota; maternal glyphosate exposure
  composition of gut microbiota: abnormal composition
Gut microbiota; vs water-treated group
  relative abundance of Clostridium sp. Clone-1, Enterorhabdus muris, Clostridium sp. Clone-46, and Butyricimonas virosa: significantly higher
  relative abundance of Eubacterium plexicaudatum, Lachnospiraceae bacterium 538, and Clostridium tertium: significantly lower
sEH; juvenile offspring (P28) after maternal glyphosate exposure vs water
  protein levels of sEH in the PFC, hippocampus, and striatum: significantly higher
sEH; mothers treated with glyphosate vs water-treated mice
  protein levels of sEH in the PFC and striatum of mothers: significantly higher
ddY mice
  levels of acetic acid in the fecal samples: significantly increased
  propionic acid, butyric acid, and valeric acid in fecal samples: not different
